This passage reports emission maximum results from the Deep4Chem optical property database.

Structures are written as SMILES.

The series can be described thus: solvent given as SMILES.

On to `c1ccc2c(-c3c4ccccc4c(-c4ccc(-c5ccc(-n6c7ccccc7c7ccccc76)cc5)cc4)c4ccccc34)cccc2c1`, for which the emission maximum (in ClCCl) is recorded as 420 nm.
For the setting “in ClC(Cl)Cl”, `CC[N+](CC)=c1ccc2c(-c3ccccc3C(=O)O)c3cc4c(-c5ccccc5C(=O)O)c5ccc(=[N+](CC)CC)cc-5oc4cc3oc-2c1` had an emission maximum of 622 nm.
Consider `Oc1cc2ccc3cc(O)cc4ccc(c1)c2c34`, for which the emission maximum (in CO) is 405 nm.
As to `c1cc2c3c(cccc3c1)C(N1CCOCCOCCN(C3=Nc4cccc5cccc3c45)CCOCC1)=N2`, for the setting “in CC#N”, the emission maximum was 590 nm.
`COC(=O)c1ccc(C2=C(/C=C/c3ccc(OC)cc3)O[B-](F)(F)[O+]=C2/C=C/c2ccc(OC)cc2)cc1` gave an emission maximum (in ClCCl) of 557 nm.
On the same count and under the same terms, as for `CC(C)(C)c1ccc(-c2cc(-c3ccc(-c4cc(-c5ccc(C(C)(C)C)cc5)c(C(=O)NC5CCCCC5)s4)s3)sc2C(=O)NC2CCCCC2)cc1`, the figure is 448 nm.
Molecule `COC(=O)c1[nH]c(-c2ccccc2)c2nnc3ccsc3c12` yielded an emission maximum (in ClCCl) of 478 nm.
Where the note is “in ClC(Cl)Cl”, `CC1=CC(/C=C/c2ccc(N(C)C)cc2)=[N+]2C1=C(c1ccccc1)c1c(C)cc(/C=C/c3ccc(N(C)C)cc3)n1[B-]2(F)F` displayed an emission maximum of 753 nm.
For `O=P1(c2ccccc2)C(c2ccc(C3=Cc4ccccc4P3(=O)c3ccccc3)cc2)=Cc2ccccc21` (stereo not drawn), the emission maximum (in C1CCOC1) came to 431 nm.
Take `C(=C\c1ccncn1)/c1ccc(N2CCCCC2)cc1`: the emission maximum by setting is: (in C1CCOC1) 486 nm; (in CC#N) 514 nm; (in CCCCCCC) 435 nm; (in CS(C)=O) 521 nm; (in ClCCl) 498 nm.
`O=c1c2ccccc2[nH]c2ccccc12`: the emission maximum by setting is: (in CS(C)=O) 408 nm; (in O) 416 nm.
Consider `C1=C(c2ccccc2)C=C(c2ccccc2)/C1=C/c1cccc(Oc2ccccc2)c1`, for which, for the setting “in C1CCOC1”, the emission maximum came out at 506 nm.
Where the note is “in Cc1ccccc1”, `COc1ccc(C2=[N+]3C(=Nc4c(-c5cc(OC)c(OC)c(OC)c5)cc(-c5ccc(OC)cc5)n4[B-]3(F)F)C(c3cc(OC)c(OC)c(OC)c3)=C2)cc1` gave an emission maximum of 724 nm.
`N#Cc1ccc(/C=C2\N=C(c3ccccc3)OC2=O)cc1` displayed an emission maximum (in C1COCCO1) of 426 nm.
As for `COc1ccc(C#Cc2c3cc4ccccc4cc3c(C#C[Si](C(C)C)(C(C)C)C(C)C)c3cc4ccccc4cc23)cc1`, the emission maximum (in ClCCl) came out at 666 nm.
For `Nc1ccc2c3c(cccc13)C(=O)c1ccccc1-2`, the emission maximum runs as follows: (in CC#N) 626.17 nm; (in CC(C)=O) 610.13 nm; (in CC(C)O) 664.89 nm; (in CCCCOCCCC) 570.13 nm; (in CCOC(C)=O) 592.07 nm; (in CCOCC) 585.14 nm. Also, the emission maximum reads like this: (in CO) 667.11 nm; (in Cc1ccccc1) 569.15 nm; (in Clc1ccccc1) 579.04 nm; (in N#Cc1ccccc1) 610.13 nm; (in O=C1CCCCC1) 610.13 nm.
In turn, `CCCCOc1c(Br)cc2cc(Br)c(OCCCC)c3c4c(OCCCC)c(Br)cc5cc(Br)c(OCCCC)c(c1c23)c54` yielded an emission maximum (in ClCCl) of 489 nm.
Take `CC(C)(C)n1c(=O)c2cc3ccc4cccc5ccc(c2c1=O)c3c45`: under “in ClC(Cl)Cl”, the emission maximum stood at 451 nm.
Turning to `COc1cc(Br)cc2cc(-c3cc4cc(Br)cc(OC)c4oc3=O)oc12`, the emission maximum (in CC#N) worked out at 381 nm; the emission maximum (in CCOC(C)=O) is listed as 434 nm; the emission maximum (in CS(C)=O) was 387 nm; the emission maximum (in Cc1ccccc1) is recorded as 430 nm; the emission maximum (in O) was determined as 497 nm.
`c1ccc(-c2nc(-c3ccc(-c4ccc(-n5c6ccccc6c6ccccc65)cc4)cn3)oc2-c2ccccc2)cc1` returned an emission maximum (in C1CCOC1) of 411 nm; an emission maximum (in C1COCCO1) of 406 nm; an emission maximum (in CC#N) of 415 nm; an emission maximum (in CC(C)=O) of 413 nm; an emission maximum (in CC(C)OC(C)C) of 398 nm; an emission maximum (in CCCCCC) of 392 nm. The molecule further registered an emission maximum (in CCCCOCCCC) of 399 nm; an emission maximum (in CCN(CC)CC) of 396 nm; an emission maximum (in CCOC(C)=O) of 408 nm; an emission maximum (in CCOCC) of 400 nm; an emission maximum (in Cc1ccccc1) of 404 nm; an emission maximum (in c1ccccc1) of 405 nm.
Consider `CCCCCCCCOc1ccc(-c2c3c4n(c(-c5ccc(OCCCCCCCC)cc5)c3c3n2[B-](F)(F)[n+]2ccccc2N=3)[B-](F)(F)[n+]2ccccc2N=4)cc1`, for which the emission maximum (in ClC(Cl)Cl) worked out at 661 nm.
Molecule `CCOC(=O)C(Cc1ccc(O[Si]2(Oc3ccc(CC(NC(C)=O)C(=O)OCC)cc3)n3c4c5ccccc5c3/N=C3N=C(/N=c5/c6ccccc6/c(n52)=N/C2=NC(=N\4)/c4ccccc42)c2ccccc2\3)cc1)NC(C)=O` (stereo not drawn) showed an emission maximum (in CN(C)C=O) of 686 nm.
As for `c1ccc(-c2nn(-c3ccccc3)c3nc4ccc(N(c5ccccc5)c5cccc6ccccc56)cc4cc23)cc1`, the emission maximum is, setting by setting: (in C1CCCCC1) 484.73 nm; (in C1CCOC1) 516 nm; (in CC#N) 555.25 nm; (in CC(C)=O) 538.21 nm; (in CCCCCl) 509.68 nm; (in CCCCOCCCC) 494.8 nm. This molecule returned an emission maximum (in CN(C)C=O) of 553.1 nm.
As to `O=C1Cc2cc3c(cc2CCCc2ccc(cc2)CCC3)CC(=O)Cc2ccc(c3nsnc23)C1`, the emission maximum is given as 501 nm (in C1CCCCC1), 544 nm (in CC#N) and 522 nm (in ClC(Cl)Cl).
On to `Cc1ccc(-c2ccc(/C=C/c3ccc(Cl)cc3)cn2)nc1`, for which the emission maximum (in CC#N) came out at 392 nm.
Molecule `C[Si]1(C)O[Si](C)(C)c2cc3nc4ccccc4c(-c4ccccc4)c3cc2[Si](C)(C)O1` displayed an emission maximum (in ClCCl) of 501 nm.
In turn, `CCOC(=O)COc1ccc(/C=C/C2=C3c4ccccc4C(c4ccc[nH]4)=[N+]3[B-](F)(F)n3ccc(C)c32)cc1` showed an emission maximum (in C1CCOC1) of 625 nm; an emission maximum (in CC#N) of 617 nm; an emission maximum (in CCCCCC) of 630 nm; an emission maximum (in CO) of 624 nm; an emission maximum (in Cc1ccccc1) of 637 nm; an emission maximum (in ClCCl) of 631 nm.
For the setting “in ClCCl”, `CC[B-]1(CC)c2cccc3c4c5c(cccc5c(c23)-c2cccc(C)[n+]21)[B-](CC)(CC)[n+]1c(C)cccc1-4` had an emission maximum of 620 nm.
For `O=C1CC(c2ccc(F)cc2)c2c(c3ccccc3c3nc4ccccc4nc23)O1` (stereo not drawn), where the note is “in ClC(Cl)Cl”, the emission maximum is recorded as 437 nm.
On to `C(=C\c1ncnc2ccccc12)/c1ccc(N2CCCCC2)cc1`, for which the emission maximum came out at 480 nm (in C1CCCCC1); 540 nm (in C1CCOC1); 579 nm (in CC#N); 589 nm (in CS(C)=O); 558 nm (in ClCCl).
For the molecule `CN(C)c1ccc2cc3ccc(N(C)C)cc3nc2c1`, under “in O”, the emission maximum is on record as 530 nm.
With `CCN(CC)c1ccc2cc(-c3csc(N)c3C#N)c(=O)oc2c1`, the emission maximum by setting is: (in C1CCOC1) 458 nm; (in CO) 514 nm; (in CS(C)=O) 482 nm; (in Cc1ccccc1) 447 nm; (in ClCCl) 464 nm.
As to `Cc1cc(C)c(B(c2c(C)cc(C)cc2C)N2c3ccccc3C(c3ccccc3)(c3ccccc3)c3ccccc32)c(C)c1`, the emission maximum reads like this: (in C1CCCCC1) 522 nm; (in Cc1ccccc1) 537 nm; (in ClCCl) 558 nm.
Under “in ClC(Cl)Cl”, `CCC1(CC)c2cc(-c3ccc(N(c4ccc(-c5ccc6c(c5)C(CC)(CC)c5cc(N7c8ccccc8C(C)(C)c8ccccc87)ccc5-6)cc4)c4ccc(-c5ccc6c(c5)C(CC)(CC)c5cc(N7c8ccccc8C(C)(C)c8ccccc87)ccc5-6)cc4)cc3)ccc2-c2ccc(N3c4ccccc4C(C)(C)c4ccccc43)cc21` had an emission maximum of 431 nm.
`CN(C)c1ccc(C2=Cc3c4ccccc4c4ccccc4[n+]3[B-](F)(F)O2)cc1`: the emission maximum was 539 nm (in C1CCOC1); 518 nm (in C1COCCO1); 485 nm (in CC1CCCCC1); 569 nm (in CC#N); 536 nm (in CCOC(C)=O); 513 nm (in CCOCC). The emission maximum reads like this: (in CN(C)C=O) 571 nm; (in CO) 559 nm; (in COC(C)=O) 559 nm; (in ClC(Cl)Cl) 521 nm.
For `CN(C)c1ccc(C#Cc2ccc(-c3cc(N(C)C)c4ccccc4c3)cc2)cc1`, the emission maximum by setting is: (in CC#N) 497.02 nm; (in CCO) 472.33 nm; (in ClCCl) 457 nm.
Under “in Cc1ccccc1”, `CC1(C)c2ccccc2N(c2ccc(-c3cc(-c4ccccc4)nc(-c4ccccc4)n3)cc2)c2ccccc21` came in with an emission maximum of 475.6 nm.
`CC(C)(C)c1ccc(-c2nc3c4ccc(-c5ccccc5)cc4c4cc(-c5ccccc5)ccc4c3n2-c2ccc(C(C)(C)C)cc2)cc1`: the emission maximum reads like this: (in C1CCOC1) 389 nm; (in C1COCCO1) 389 nm; (in CC#N) 391 nm; (in CCCCCC) 385 nm; (in CCCCOCCCC) 386 nm; (in CCN(CC)CC) 386 nm. The emission maximum runs as follows: (in CCOC(C)=O) 388 nm; (in CCOCC) 386 nm; (in CN(C)C=O) 392 nm; (in Cc1ccccc1) 388 nm; (in ClC=C(Cl)Cl) 389 nm; (in ClCCl) 390 nm.
`NC1=N/C(=N\c2ccccn2)c2cccc3cccc1c23`: the emission maximum (in ClCCl) was 506 nm.
Molecule `CCCCCCCCCCCCOc1ccc(C2=c3sc4ccccc4c3=[N+]3C2=Nc2c(-c4ccc(OCCCCCCCCCCCC)cc4)c4sc5ccccc5c4n2[B-]3(F)F)cc1` registered an emission maximum (in C1CCOC1) of 813 nm, an emission maximum (in Cc1ccccc1) of 804 nm and an emission maximum (in ClC(Cl)Cl) of 808 nm.
On to `COc1ccc(C2=C(c3ccc(OC)cc3)C(C)(C)c3ccccc32)cc1`, for which the emission maximum (in C1CCCCC1) is reported as 391 nm.
